The numbers were not newly measured in article PMC4567415 (Nuclear medicine and biology, 2015), which cites them from elsewhere.

SMILES strings stand for the structures. Several values for one entry are separate records, joined by “and”; a condition that tells them apart may be missing. Equal values may be shown once. Read-outs that look alike come from different tables or passages of the source.

For series [1] the following is noted: previously described rhodamine B ester.
The conditions of series [2]: previously observed.
For series [3] the following is noted: rats, 60 min.
In series [4] the test system is isolated rat cardiomyocytes.
Where [5] appears, read: Sprague-Dawley rats, 60 min p.i.

For the compound `CCN(CC)c1ccc2c(-c3ccccc3C(=O)OCCOCC[18F])c3ccc(N(CC)CC)cc3[o+]c2c1` [[^18F]2], in series [1], the log distribution coefficient (LogD) is recorded as 1.90 ± 0.01. The “stability in mouse serum” value in series [2] is “instability”. In series [3], the “Biodistribution of radioactivity, Blood” value is listed as 0.25 ± 0.02 % ID/g; the “Biodistribution of radioactivity, Bone” value is reported as 0.77 ± 0.04 % ID/g; the “Biodistribution of radioactivity, Gut” value is listed as 1.69 ± 0.42 % ID/g; the “Biodistribution of radioactivity, Heart” value was 2.5 % ID/g and 2.51 ± 0.16 % ID/g. Besides, in series [3], the “Biodistribution of radioactivity, Kidney” value is reported as 9.28 ± 0.66 % ID/g; the “Biodistribution of radioactivity, Liver” value was 0.49 ± 0.04 % ID/g; the “Biodistribution of radioactivity, Lung” value is given as 2.06 ± 0.16 % ID/g; the “Biodistribution of radioactivity, Muscle” value was 0.54 ± 0.07 % ID/g. In addition, in series [3], the “Biodistribution of radioactivity, Skin” value is recorded as 0.36 ± 0.04 % ID/g; the “Biodistribution of radioactivity, Spleen” value was 3.53 ± 0.57 % ID/g; the Heart/blood tissue ratio is recorded as 10.0; the Heart/bone tissue ratio is recorded as 3.3. For the same compound, in series [3], the Heart/liver tissue ratio is 5.1 and the Heart/lung tissue ratio is recorded as 1.2. Also, in series [4] (1 min incubation), the “initial activity internalized into rat cardiomyocytes” value was 3.9±0.8%. Moreover, in series [4] (60 min incubation), the “initial activity internalized into rat cardiomyocytes” value was 43.1±7.7%.
With `CC/N=c1\cc2oc3cc(NCC)c(C)cc3c(-c3ccccc3C(=O)OCC)c-2cc1C` [rhodamine 6G], the “substrate of Pgp” value in the series with Pgp is reported as “substrate of Pgp”.
For the compound `Fc1ccc([P+](c2ccccc2)(c2ccccc2)c2ccccc2)cc1` [BFPET], the heart uptake is, setting by setting: (Sprague-Dawley rats, 30 min) 1.51±0.04 % ID/g; under setting [5], 1.57±0.18 % ID/g. The liver concentration is reported as 0.18±0.05 % ID/g (Sprague-Dawley rats, 30 min p.i.) and 0.17±0.03 % ID/g under setting [5].
In the case of `CC(C)(C)n1ncc(OCc2ccc(COCCF)cc2)c(Cl)c1=O` [BMS-747158-02], under “30 min p.i.”, the heart-to-blood ratio is listed as 30.0, the heart-to-liver ratio was 2.7 and the liver concentration is listed as 1.27±0.10 % ID/g. For the same compound, where the note is “120 min p.i.”, the heart-to-liver ratio was 5.4 and the liver concentration is reported as 0.63±0.16 % ID/g. For the same compound, under setting [5], the heart concentration is reported as 3.3±0.3 % ID/g and the heart-to-liver ratio is listed as 3.7. For the same compound, under “Wistar rats, 60 min p.i.”, the heart concentration is 2.06±0.83 % ID/g and the heart-to-liver ratio was 5.4.
